From US20090197957A1, “Methods and compositions for the treatment of pain” (Nuon Therapeutics, Inc., priority 2005, published 2009)

Columns and labels:
[1] = tested on: mechanical and thermal allodynia in CIA; assay: Allodynia assessment in arthritic mice (Plantar Von-Frey, Hargreaves test); format: in vivo
Procedure: FIG. 6 is an image depicting that 3,4-DAA inhibits mechanical and thermal allodynia, and inhibits astrocytic activation in arthritic mice. Mechanical (a) and thermal (b) allodynia, and paw swelling (c) and clinical score (d) were assessed in naïve mice on the day of arthritis onset, and up to 10 days following therapy with 200 mg/kg 3,4-DAA, […] dexamethasone, or vehicle. […] Whilst 3,4-DAA therapy reduced astrocytic activation (bottom right panel) dexamethasone had no action on GFAP levels (bottom left panel). Quantification of the number of hyper-plastic astrocytes in the spinal cord 10 days following onset of arthritis was performed (f).
The pain thresholds of the mice were assessed prior to immunization (naïve) on day of onset (day 0) and up to 10 days following therapy with 3,4-DAA (200 mg/kg/day), dexamethasone (0.5 mg/kg/2 days) or vehicle alone (n=9 per group). The Ugo Basile 37400 Plantar Von-Frey microprocessor controlled unit was used to assess mechanical hyperalgesia and Ugo Basile 7370-6 Plantar Test (Hargreaves test) was used to assess thermal hyperalgesia. Mechanical hyperalgesia was assessed by applying an increasing force to the hind paw at the rate of 3 g/second, and measuring the force required to elicit lifting of the paw. Thermal hyperalgesia was assessed by applying an increasing infrared source (intensity 50), and measuring the time required for lifting of the paw.

[2] = tested on: established CIA; assay: Treatment of established collagen-induced arthritis (clinical score, paw swelling, histology, relapse); format: in vivo, DBA/1 mice
Procedure: FIG. 2 is a graphical representation of the treatment of established CIA with 3,4-DAA. DBA/1 mice were immunised with type II collagen in CFA and monitored for development of arthritis. On day 1 of arthritis, mice were injected intraperitoneally with 3,4-DAA on a daily basis. Paw thickness was measured with callipers. The clinical scoring system was as follows: 0=normal, 1=slight swelling and/or erythema, and 2=pronounced oedematous swelling. Each limb was graded, giving a maximum score of 8 per mouse. Histological assessment of arthritis was carried out on haematoxylin and eosin stained sections using a scoring system as follows: 0, normal; 1, minimal synovitis without cartilage/bone erosion; 2, synovitis with some marginal erosion but joint architecture maintained; 3, severe synovitis and erosion with loss of normal joint architecture. There were 14 mice/group (data pooled from two separate experiments).
FIG. 5 is a graphical representation of the relapse of arthritis 4 days after cessation of therapy. Mice with established CIA (n=6) were treated with 3,4-DAA (400 mg/kg/day) from days 1 to 5 of arthritis and clinical severity of arthritis was monitored up to day 12. Arthritis is seen to relapse at around day 9.
Type II collagen was purified from bovine cartilage, as described [Williams 2004, Methods Mol. Med. 98:207-216] and solubilized by stirring overnight at 4° C. in acetic acid (0.1M) or Tris buffer (0.05 M Tris, containing 0.2 M NaCl, pH 7.4). 3,4-DAA was synthesised by Angiogen Pharmaceuticals Pty. Ltd. For in vivo studies 3,4-DAA was dissolved at a maximum concentration of 10 mg/ml in 1% sodium bicarbonate by heating for 1 h at 70° C. Upon cooling, an emulsion was formed. For in vitro studies 3,4-DAA was dissolved in dimethyl sulphoxide (DMSO). 3-Hydroxy-anthranilic acid (3-HAA) was purchased from Sigma (Poole, UK) and dissolved in PBS.
Male DBA/1 mice (8-12 weeks old) were immunized intradermally at the base of the tail with bovine type II collagen (200 μg) emulsified in complete Freund's adjuvant (CFA; Difco, West Molesley, UK). Arthritis was monitored clinically using the following scoring system: 0=normal, 1=slight swelling and/or erythema, and 2=pronounced oedematous swelling. Each limb was graded, giving a maximum score of 8 per mouse. In addition, paw-swelling was measured using callipers.
Histopathological assessment of arthritis was carried out in a ‘blinded’ fashion on decalcified haematoxylin and eosin stained sections using a scoring system as follows: 0, normal; 1, minimal synovitis without cartilage/bone erosion; 2, synovitis with some marginal erosion but joint architecture maintained; 3, severe synovitis and erosion with loss of normal joint architecture. This research was approved by the local ethical review process committee and by the Home Office of Great Britain.
The ability of 3,4-DAA to treat established CIA was tested. Mice were immunised with type II collagen in CFA. On day 1 of clinical arthritis (the day that arthritis was first observed) mice were randomly assigned to different treatment groups and given 3,4-DAA (100 mg/kg/day, 200 mg/kg/day or 400 mg/kg/day) or vehicle alone over a 10 day period. […] Significant differences between 3,4-DAA treated and control mice were observed from day 3 until the end of the treatment period (day 10). On day 10 the mice were killed and the first paw to show clinical evidence of arthritis was processed for histology. Joints were examined ‘blindly’ for severity of inflammation and joint erosion.
Therefore, it is clearly of interest to establish what happens in vivo when treatment with 3,4-DAA is stopped. Is there a disease flare and if so, does it occur immediately after cessation of treatment? […] Treatment was then stopped and mice were monitored for a further 7 days.

[3] = administered therapeutically at doses of up to 400 mg/kg/day
[4] = established arthritis, up to 10 days therapy, 3,4-DAA 200 mg/kg/day, dexamethasone 0.5 mg/kg/2 days
[5] = established CIA, 100, 200 or 400 mg/kg/day over 10 days
[6] = up to 10 days therapy, 3,4-DAA 200 mg/kg/day, dexamethasone 0.5 mg/kg/2 days

Row | SMILES | action on allodynia in CIA [1, 3] | action on inflammation in CIA [2, 3] | mechanical allodynia [1, 4] | thermal allodynia [1, 4] | arthritis severity during the treatment period ([2]; 400 mg/kg/day from day 1 to day 5 of arthritis) | day of arthritis on which exacerbation/relapse was observed after treatment stopped on day 5 ([2]; 400 mg/kg/day from days 1 to 5, monitored up to day 12) | clinical scores [2, 5] | paw-swelling [2, 5] | histological severity of arthritis ([2]; established CIA, 100, 200 or 400 mg/kg/day, day 10) | clinical score [2, 6] | paw swelling [2, 6]
1 | Nc1c(O)cccc1C(=O)O [3-Hydroxyanthranilic acid] | no action | no action |  |  |  |  |  |  |  |  | 
2 | COc1ccc(/C=C/C(=O)Nc2ccccc2C(=O)O)cc1OC [Tranilast, 2-[[3-(3,4-dimethoxyphenyl)-1-oxo-2-propenyl]amino]benzoic acid] |  |  | abolished | abolished | dramatic reduction | 9 days | dose-dependent reduction | dose-dependent reduction | dose-dependent reduction | significantly reduced | significantly reduced
